Data on 20 compounds can be found in US7432257B2, “Piperdinyl-phenoxazine and phenothiazine derivatives as δ-opioid modulators” (Janssen Pharmaceutica N.V., priority 2005, dated 2008).

Some results are limits rather than exact numbers.

One assay has as its target T1, delta opioid receptor (Rattus norvegicus, UniProt P33533).
T1 construct: from tissue; host or cells: Forebrain of male Wistar rats, particulate membrane preparation
Briefly: Rat Brain Delta Opioid Receptor Binding Assay. The following applies: rat forebrain membranes; [3H]DPDPE or [3H]naltrindole, 25° C., 2.5 h.

Assay [1] has as its target T2, delta opioid receptor (NG108-15 cell membranes) (Mus musculus, UniProt P32300).
T2 construct: NG108-15 cell membranes were purchased from Applied Cell Sciences (Rockville, Md.); host or cells: NG108-15 cell membranes (purchased)
Briefly: [35S]GTPγS Binding Assay in NG108-15 Cell Membranes (Delta Opioid). Format: biochemical.

For the next assay, the target named is T3, mu opioid receptor (Rattus norvegicus, UniProt P33535).
T3 construct: from tissue; host or cells: Forebrain of male Wistar rats, particulate membrane preparation
T3 sequence (P33535 whole entry): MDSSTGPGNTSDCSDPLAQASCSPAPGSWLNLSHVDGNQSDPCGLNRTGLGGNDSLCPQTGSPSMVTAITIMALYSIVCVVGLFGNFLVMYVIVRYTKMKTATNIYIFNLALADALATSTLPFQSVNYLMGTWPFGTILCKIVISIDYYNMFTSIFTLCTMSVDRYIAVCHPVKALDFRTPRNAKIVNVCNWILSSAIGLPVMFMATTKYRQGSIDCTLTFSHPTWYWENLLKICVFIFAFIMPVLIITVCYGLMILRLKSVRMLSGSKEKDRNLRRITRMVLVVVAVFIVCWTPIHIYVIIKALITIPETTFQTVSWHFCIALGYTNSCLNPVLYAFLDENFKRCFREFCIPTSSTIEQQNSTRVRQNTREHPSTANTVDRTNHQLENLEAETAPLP
Briefly: Rat Brain Mu Opioid Receptor Binding Assay. As to conditions: rat forebrain membranes; [3H]DAMGO, 25° C., 2.5 h.

The target in assay [2] is hMOR (CHO-hMOR cell membranes) (Homo sapiens, UniProt P35372). The experiment in a line: [35S]GTPγS Binding Assays in CHO-hMOR Cell Membranes. Format: biochemical. The following applies: read-out: mu GTPγS EC50.
hMOR (CHO-hMOR cell membranes), sequence (P35372 whole entry): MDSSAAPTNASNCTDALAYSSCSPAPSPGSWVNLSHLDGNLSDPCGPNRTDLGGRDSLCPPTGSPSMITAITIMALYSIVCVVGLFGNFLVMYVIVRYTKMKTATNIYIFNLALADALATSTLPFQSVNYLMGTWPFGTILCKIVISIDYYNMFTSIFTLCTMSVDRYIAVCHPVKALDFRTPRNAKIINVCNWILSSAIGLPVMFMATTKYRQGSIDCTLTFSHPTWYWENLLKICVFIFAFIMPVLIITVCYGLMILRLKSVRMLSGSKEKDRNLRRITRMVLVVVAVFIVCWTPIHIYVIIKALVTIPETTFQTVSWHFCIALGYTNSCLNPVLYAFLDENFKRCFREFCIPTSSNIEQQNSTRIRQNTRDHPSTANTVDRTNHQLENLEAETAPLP

T1 sequence (P33533 whole entry): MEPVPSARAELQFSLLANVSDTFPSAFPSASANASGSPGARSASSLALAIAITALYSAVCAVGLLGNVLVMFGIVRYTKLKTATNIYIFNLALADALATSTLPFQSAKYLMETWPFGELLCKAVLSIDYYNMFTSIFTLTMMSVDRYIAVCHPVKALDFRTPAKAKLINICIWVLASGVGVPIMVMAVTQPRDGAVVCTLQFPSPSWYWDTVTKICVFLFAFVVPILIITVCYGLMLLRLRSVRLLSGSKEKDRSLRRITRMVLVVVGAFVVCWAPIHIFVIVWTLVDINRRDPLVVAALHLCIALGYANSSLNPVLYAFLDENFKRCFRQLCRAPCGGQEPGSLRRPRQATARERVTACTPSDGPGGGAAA
T2 sequence (P32300 whole entry): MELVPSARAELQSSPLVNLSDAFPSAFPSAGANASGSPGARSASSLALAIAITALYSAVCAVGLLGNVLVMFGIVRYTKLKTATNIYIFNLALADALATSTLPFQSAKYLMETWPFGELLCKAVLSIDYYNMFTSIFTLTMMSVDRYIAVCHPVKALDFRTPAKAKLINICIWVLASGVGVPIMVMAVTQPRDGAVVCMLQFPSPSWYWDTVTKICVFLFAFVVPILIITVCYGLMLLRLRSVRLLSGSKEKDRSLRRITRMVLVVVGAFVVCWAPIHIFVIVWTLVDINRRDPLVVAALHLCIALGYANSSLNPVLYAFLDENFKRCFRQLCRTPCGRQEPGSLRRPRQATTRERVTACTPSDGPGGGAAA

On to `N#Cc1ccc2c(c1)Oc1ccccc1N2C1CCNCC1` [Compound 11a, 10-Piperidin-4-yl-10H-phenoxazine-3-carbonitrile], for which the Ki on delta opioid receptor came out at 436 nM; at mu opioid receptor, 5820 nM. Further, the EC50 in assay [1] is 1930 nM; in assay [2], > 10000 nM.

Consider `Oc1cccc2c1Oc1cc(-c3ccncc3)ccc1N2C1CCNCC1` (single isomer, unassigned) [Compound 4p, 10-Piperidin-4-yl-7-pyridin-4-yl-10H-phenoxazin-4-ol], for which the Ki on delta opioid receptor stood at 535 nM. For the compound `c1ccc2c(c1)Oc1cc(-c3nnn[nH]3)ccc1N2C1CCN(Cc2ncc[nH]2)CC1` [Compound 7a, 10-[1-(1H-Imidazol-2-ylmethyl)-piperidin-4-yl]-3-(1H-tetrazol-5-yl)-10H-phenoxazine], the Ki on delta opioid receptor was 655 nM; at mu opioid receptor, 2770 nM. For the compound `O=C(c1ccc2c(c1)Oc1ccccc1N2C1CCN(Cc2ccccc2)CC1)N1CC[C@H](O)C1` [Compound 13r, [10-(1-Benzyl-piperidin-4-yl)-10H-phenoxazin-3-yl]-(3-(S)-Hydroxypyrrolidin-1-yl)-methanone], the affinity at delta opioid receptor corresponds to a Ki of 465 nM. As to `CC(=O)Nc1ccccc1-c1ccc2c(c1)Oc1ccccc1N2C1CCN(Cc2ccccc2)CC1` [Compound 5h, N-{2-[10-(1-Benzyl-piperidin-4-yl)-10H-phenoxazin-3-yl]-phenyl}-acetamide], the Ki on delta opioid receptor amounted to 400 nM; on mu opioid receptor, 3320 nM.

In the case of `COc1cccc2c1Oc1cc(-c3ccncc3)ccc1N2C1CCNCC1` (single isomer, unassigned) [Compound 5p, 6-Methoxy-10-piperidin-4-yl-3-pyridin-4-yl-10H-phenoxazine], at delta opioid receptor, the affinity, expressed as Ki, was 589 nM.

On delta opioid receptor, `c1ccc(CN2CCC(N3c4ccccc4Oc4cc(-c5ccncc5)ccc43)CC2)nc1` [Compound 5k, 3-Pyridin-4-yl-10-(1-pyridin-2-ylmethyl-piperidin-4-yl)-10H-phenoxazine] came in with a Ki of 1200 nM. Still for that read-out and setting: the result for `CCN(CC)C(=O)c1ccc2c(c1)Oc1ccccc1N2C1CCN(Cc2nccs2)CC1` [Compound 9r, 10-(1-Thiazol-2-ylmethyl-piperidin-4-yl)-10H-phenoxazine-3-carboxylic acid diethylamide] reads 300 nM; that for `COc1cccc2c1Oc1cc(C(=O)N(C)C)ccc1N2C1CCN(Cc2ccccc2)CC1` [Compound 5d, 10-(1-Benzyl-piperidin-4-yl)-6-methoxy-10H-phenoxazine-3-carboxylic acid dimethylamide], 374 nM; that for `CCN(CC)C(=O)c1ccc2c(c1)Oc1ccccc1N2C1CCN(Cc2ccoc2)CC1` [Compound 10r, 10-(1-Furan-3-ylmethyl-piperidin-4-yl)-10H-phenoxazine-3-carboxylic acid diethylamide], 655 nM. As to `NC(=O)c1ccc2c(c1)Oc1ccccc1N2C1CCNCC1` [Compound 12a, 10-Piperidin-4-yl-10H-phenoxazine-3-carboxylic Acid amide], the Ki amounted to 682 nM at delta opioid receptor and 1240 nM on mu opioid receptor. The half-maximal effective concentration (EC50) was 9250 nM in assay [1] and > 10000 nM in assay [2].

`CCNC(=O)c1ccc2c(c1)Sc1ccccc1N2C1CCN(Cc2cccs2)CC1` [Compound 4m, 10-(1-Thiophen-2-ylmethyl-piperidin-4-yl)-10H-phenothiazine-3-carboxylic acid ethylamide] returned a Ki at delta opioid receptor of 784 nM. On delta opioid receptor, `O=C(c1ccc2c(c1)Oc1ccccc1N2C1CCN(Cc2ccccn2)CC1)N1CC[C@H](O)C1` [Compound 15r, (3-(S)-Hydroxypyrrolidin-1-yl)-[10-(1-pyridin-2-ylmethyl-piperidin-4-yl)-10H-phenoxazin-3-yl]-methanone] came in with an inhibition constant Ki of 203 nM. Consider `CC(=O)Nc1ccccc1-c1ccc2c(c1)Sc1ccccc1N2C1CCN(Cc2ccccn2)CC1` [Compound 6g, N-{2-[10-(1-Pyridin-2-ylmethyl-piperidin-4-yl)-10H-phenothiazin-3-yl]-phenyl}-acetamide], for which the figures for the Ki at delta opioid receptor and on mu opioid receptor were 255 nM and 837 nM, respectively. `CC(=O)Nc1ccccc1-c1ccc2c(c1)Oc1ccccc1N2C1CCN(Cc2ccoc2)CC1` [Compound 3j, N-{2-[10-(1-Furan-3-ylmethyl-piperidin-4-yl)-10H-phenoxazin-3-yl]-phenyl}-acetamide] had a Ki on delta opioid receptor of 2280 nM. As for `c1ccc(CN2CCC(N3c4ccccc4Sc4cc(-c5cccnc5)ccc43)CC2)nc1` [Compound 2f, 3-Pyridin-3-yl-10-(1-pyridin-2-ylmethyl-piperidin-4-yl)-10H-phenothiazine], the Ki on delta opioid receptor came to 365 nM; on mu opioid receptor, 2850 nM. Take `CC(=O)Nc1ccccc1-c1ccc2c(c1)Oc1ccccc1N2C1CCN(Cc2ccccn2)CC1` [Compound 5j, N-{2-[10-(1-Pyridin-2-ylmethyl-piperidin-4-yl)-10H-phenoxazin-3-yl]-phenyl}-acetamide]: the inhibition constant (Ki) at delta opioid receptor is 576 nM. On the same count and under the same terms, with `O=C(c1ccc2c(c1)Oc1ccccc1N2C1CCN(Cc2ccoc2)CC1)N1CC[C@H](O)C1` [Compound 16r, [10-(1-Furan-3-ylmethyl-piperidin-4-yl)-10H-phenoxazin-3-yl]-(3-(S)-Hydroxypyrrolidin-1-yl)-methanone] the figure was 189 nM; with `CC(=O)Nc1ccccc1-c1ccc2c(c1)Oc1ccccc1N2C1CCN(Cc2ncc[nH]2)CC1` [Compound 7j, N-(2-{10-[1-(1H-Imidazol-2-ylmethyl)-piperidin-4-yl]-10H-phenoxazin-3-yl}-phenyl)-acetamide], 249 nM.

The compound `c1ccc(CN2CCC(N3c4ccccc4Oc4cc(-c5nnn[nH]5)ccc43)CC2)nc1` [Compound 10a, 10-(1-Pyridin-2-ylmethyl-piperidin-4-yl)-3-(1H-tetrazol-5-yl)-10H-phenoxazine] had an inhibition constant (Ki) at delta opioid receptor of 227 nM.
